# From PMC3616494 (Journal of medicinal chemistry, 2008)
# “Also recorded” adds a separate entry of the source.
# Assays:
# rat A3 AR = target: T1, rat A3 AR (Rattus norvegicus, UniProt P28647); assay: Radioligand binding at rat A3 AR; conditions: for Binding affinity at the rat A3 AR (in words): CHO cells
# T1 sequence (P28647 1-320): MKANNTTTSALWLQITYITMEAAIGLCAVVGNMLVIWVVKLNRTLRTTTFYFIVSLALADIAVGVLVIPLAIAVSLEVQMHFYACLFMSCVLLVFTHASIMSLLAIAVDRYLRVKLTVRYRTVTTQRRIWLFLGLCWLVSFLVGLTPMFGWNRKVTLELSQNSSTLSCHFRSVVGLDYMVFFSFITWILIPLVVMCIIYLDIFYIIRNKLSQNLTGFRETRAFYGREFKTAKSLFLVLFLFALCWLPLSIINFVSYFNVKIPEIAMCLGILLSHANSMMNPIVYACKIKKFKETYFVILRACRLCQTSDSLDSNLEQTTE
# human A3 AR = target: T2, human A3 AR (Homo sapiens, UniProt P0DMS8); assay: Radioligand binding at human A3 AR; conditions: stated for all subtypes of ARs (hA1, hA2A, hA3)
# T2 sequence (P0DMS8 1-318): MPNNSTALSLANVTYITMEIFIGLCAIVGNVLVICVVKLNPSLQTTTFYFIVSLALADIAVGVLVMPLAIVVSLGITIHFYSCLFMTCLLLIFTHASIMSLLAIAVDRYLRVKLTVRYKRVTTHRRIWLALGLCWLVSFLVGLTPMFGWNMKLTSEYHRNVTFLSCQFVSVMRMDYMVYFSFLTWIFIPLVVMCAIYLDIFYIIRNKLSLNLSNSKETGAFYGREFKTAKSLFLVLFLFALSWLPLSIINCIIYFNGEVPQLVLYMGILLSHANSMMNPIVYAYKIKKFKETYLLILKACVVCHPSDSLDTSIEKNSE
# human A2B AR = conditions: cited from earlier work
structure (smiles),measurement,setting,value
O[C@@H]1[C@H](O)CS[C@H]1n1cnc2c(NCc3cccc(Br)c3)nc(Cl)nc21 [Compound 6d],Ki,rat A3 AR,6.1 ± 1.8 nM
"CNc1ncnc2c1ncn2[C@@H]1SC[C@@H](O)[C@H]1O [Compound 7a, (2R,3R,4S)-Tetrahydro-2-(6-(methylamino)-9H-purin-9-yl)thiophene-3,4-diol]",Binding affinity at the rat A3 AR (in words),rat A3 AR,totally devoid of A3AR binding affinity; also recorded: lost their binding affinities
O[C@H]1[C@@H](O)CS[C@@H]1n1cnc2c(NCc3cccc(Br)c3)nc(Cl)nc21 [Compound 7f],Binding affinity (in words),human A3 AR,totally devoid of binding affinities
O[C@H]1[C@@H](O)CS[C@@H]1n1cnc2c(NCc3cccc(I)c3)nc(Cl)nc21 [Compound 7g],Binding affinity (in words),human A3 AR,totally devoid of binding affinities
O[C@@H]1[C@H](O)CS[C@H]1n1cnc2c(NCc3cccc(F)c3)nc(Cl)nc21 [Compound 6b],Ki,rat A3 AR,36.2 ± 10.7 nM
O[C@@H]1[C@H](O)CS[C@H]1n1cnc2c(NCc3cccc(I)c3)nc(Cl)nc21 [Compound 6e],Activity as agonist or antagonist in a cyclic AMP functional assay at the hA2B AR,human A2B AR,inactive as agonist or antagonist
CNc1nc(Cl)nc2c1ncn2[C@@H]1SC[C@@H](O)[C@H]1O [Compound 6a],Ki,rat A3 AR,658 ± 160 nM
same,Binding affinity at the rat A3 AR (in words),rat A3 AR,lost their binding affinities
